Laboratory results reported in publication PMC2737586 (Chemistry & biology, 2009).

Tests used:
Format in all cases: biochemical
ValD [1] = molecular target: ValD (Streptomyces hygroscopicus, UniProt Q1L2K7, H130N); experiment: TLC of epimerization, relative activity; settings: TLC after 30 min
ValD [2] = molecular target: ValD (Streptomyces hygroscopicus, UniProt Q1L2K7, E183A); experiment: TLC and 1H NMR of epimerization, relative activity; settings: TLC after 30 min
C-terminal half of ValD = C-terminal half of ValD (Streptomyces hygroscopicus, UniProt Q1L2K7); experiment: in vitro epimerase assay
ValD [3] = molecular target: ValD (Streptomyces hygroscopicus, UniProt Q1L2K7, H229N); experiment: TLC and 1H NMR of epimerization, relative activity; settings: TLC after 30 min
ValD [4] = molecular target: ValD (Streptomyces hygroscopicus, UniProt Q1L2K7, E291A); experiment: TLC of epimerization, relative activity; settings: TLC after 30 min
ValD [5] = molecular target: ValD (Streptomyces hygroscopicus, UniProt Q1L2K7, H44N); experiment: TLC and 1H NMR of epimerization, relative activity; settings: TLC after 30 min
ValD [6] = molecular target: ValD (Streptomyces hygroscopicus, UniProt Q1L2K7, H315N); experiment: TLC of epimerization, relative activity; settings: TLC after 30 min
N-terminal half of ValD = N-terminal half of ValD (Streptomyces hygroscopicus, UniProt Q1L2K7); experiment: in vitro epimerase assay
ValD [7] = molecular target: ValD (Streptomyces hygroscopicus, UniProt Q1L2K7, E366A); experiment: TLC and 1H NMR of epimerization, relative activity; settings: TLC after 30 min
ValD [8] = molecular target: ValD (Streptomyces hygroscopicus, UniProt Q1L2K7, E107A); experiment: TLC of epimerization, relative activity; settings: TLC after 30 min

O=C1C[C@@](O)(CO)[C@@H](O)[C@H](O)[C@@H]1O [2-epi-5-epi-valiolone]
TLC of epimerization, relative activity (ValD [1]): H130N, E183A, H229N, and E291A proteins had a comparable epimerase activity
TLC and 1H NMR of epimerization, relative activity (ValD [2]): H130N, E183A, H229N, and E291A proteins had a comparable epimerase activity
in vitro epimerase assay (data not shown) (C-terminal half of ValD): truncated proteins have a significantly reduced capacity to convert 2-epi-5-epi-valiolone to 5-epi-valiolone (data not shown)
TLC and 1H NMR of epimerization, relative activity (ValD [3]): H130N, E183A, H229N, and E291A proteins had a comparable epimerase activity
TLC of epimerization, relative activity (ValD [4]): H130N, E183A, H229N, and E291A proteins had a comparable epimerase activity
TLC and 1H NMR of epimerization, relative activity (ValD [5]): H44N, E107A, and E366A proteins had significantly reduced activities
TLC of epimerization, relative activity (ValD [6]): Mutation at H315 appeared to have moderate effect on the epimerase activity
in vitro epimerase assay (data not shown) (N-terminal half of ValD): truncated proteins have a significantly reduced capacity to convert 2-epi-5-epi-valiolone to 5-epi-valiolone (data not shown)
TLC and 1H NMR of epimerization, relative activity (ValD [7]): H44N, E107A, and E366A proteins had significantly reduced activities
TLC of epimerization, relative activity (ValD [8]): H44N, E107A, and E366A proteins had significantly reduced activities
